Laboratory results taken from ChEMBL document CHEMBL1201862, “PubChem BioAssay data set” (2004).
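Briefly, cells in 96-well plates were exposed to five compound concentrations for 48 h, and endpoints were estimated by linear interpolation. At the GI50, growth is halved.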 The source made the active and inactive calls. Rule as the data show it: active = GI50 up to about 1.1 µM and inactive = higher.

Tests used:
Assay in all cases: NCI-60 cell line screen, 48 h
Malme-3M = tested on: Malme-3M
UACC-257 = tested on: UACC-257
EKVX = tested on: EKVX
NCI-H226 = tested on: NCI-H226
ACHN = tested on: ACHN
TK-10 = tested on: TK-10
MDA-MB-231 = tested on: MDA-MB-231
DU-145 = tested on: DU-145
786-0 = tested on: 786-0
OVCAR-3 = tested on: OVCAR-3
Hs-578T = tested on: Hs-578T
MDA-N = tested on: MDA-N
COLO 205 = tested on: COLO 205
NCI/ADR-RES = tested on: NCI/ADR-RES
SNB-75 = tested on: SNB-75
SR = tested on: SR
SK-MEL-28 = tested on: SK-MEL-28
MDA-MB-435 = tested on: MDA-MB-435
RPMI-8226 = tested on: RPMI-8226
OVCAR-4 = tested on: OVCAR-4
NCI-H23 = tested on: NCI-H23
OVCAR-8 = tested on: OVCAR-8
SNB-19 = tested on: SNB-19
MOLT-4 = tested on: MOLT-4
M14 = tested on: M14
T47D = tested on: T47D
IGROV-1 = tested on: IGROV-1
U-251 = tested on: U-251
LOX IMVI = tested on: LOX IMVI
SN12C = tested on: SN12C
A549 = tested on: A549
HCC 2998 = tested on: HCC 2998
SK-OV-3 = tested on: SK-OV-3
SF-539 = tested on: SF-539
HCT-116 = tested on: HCT-116
SF-295 = tested on: SF-295
A498 = tested on: A498
SK-MEL-2 = tested on: SK-MEL-2
SW-620 = tested on: SW-620
SF-268 = tested on: SF-268
HOP-92 = tested on: HOP-92
HT-29 = tested on: HT-29
HOP-62 = tested on: HOP-62
PC-3 = tested on: PC-3
HCT-15 = tested on: HCT-15
KM12 = tested on: KM12
UACC-62 = tested on: UACC-62
NCI-H460 = tested on: NCI-H460
SK-MEL-5 = tested on: SK-MEL-5
UO-31 = tested on: UO-31
CAKI-1 = tested on: CAKI-1
RXF 393 = tested on: RXF 393
OVCAR-5 = tested on: OVCAR-5
NCI-H522 = tested on: NCI-H522
MCF7 = tested on: MCF7
K562 = tested on: K562
HL-60 = tested on: HL-60
CCRF-CEM = tested on: CCRF-CEM

Measured: GI50

N=C(N)NCCN1CC2CCC(CC2)C1
inactive: Malme-3M > 100 µM | UACC-257 > 100 µM | EKVX > 100 µM | NCI-H226 80.4 µM | ACHN > 100 µM | TK-10 > 100 µM | MDA-MB-231 > 100 µM | DU-145 > 100 µM | 786-0 > 100 µM | OVCAR-3 > 100 µM | Hs-578T 91.4 µM | MDA-N 51.9 µM | COLO 205 93.1 µM | NCI/ADR-RES > 100 µM | SNB-75 19.7 µM | SR > 100 µM | SK-MEL-28 > 100 µM | MDA-MB-435 48.5 µM | RPMI-8226 > 100 µM | OVCAR-4 > 100 µM | NCI-H23 > 100 µM | OVCAR-8 > 100 µM | SNB-19 > 100 µM | MOLT-4 > 100 µM | M14 > 100 µM | T47D > 100 µM | IGROV-1 > 100 µM | U-251 > 100 µM | LOX IMVI > 100 µM | SN12C > 100 µM | A549 > 100 µM | HCC 2998 > 100 µM | SK-OV-3 > 100 µM | SF-539 > 100 µM | HCT-116 > 100 µM | SF-295 > 100 µM | A498 > 100 µM | SK-MEL-2 > 100 µM | SW-620 > 100 µM | SF-268 > 100 µM | HOP-92 25.6 µM | HT-29 65.2 µM | HOP-62 > 100 µM | PC-3 44.1 µM | KM12 > 100 µM | UACC-62 > 100 µM | NCI-H460 > 100 µM | SK-MEL-5 53.2 µM | UO-31 > 100 µM | CAKI-1 > 100 µM | RXF 393 > 100 µM | OVCAR-5 > 100 µM | NCI-H522 > 100 µM
> 100 µM: HCT-15

COC(=O)C1=C2SCc3ccc(cc3)CSC3=C(C(=O)OC)SC(=C(S2)S1)S3
inactive: UACC-257 > 100 µM | NCI-H226 > 100 µM | ACHN > 100 µM | TK-10 > 100 µM | MDA-MB-231 > 100 µM | DU-145 > 100 µM | 786-0 96.6 µM | OVCAR-3 > 100 µM | MDA-N 74.6 µM | COLO 205 > 100 µM | SNB-75 > 100 µM | SK-MEL-28 > 100 µM | MDA-MB-435 49.4 µM | RPMI-8226 33 µM | OVCAR-4 64.6 µM | SNB-19 > 100 µM | MOLT-4 > 100 µM | M14 > 100 µM | T47D > 100 µM | MCF7 > 100 µM | U-251 > 100 µM | SN12C > 100 µM | A549 > 100 µM | HCC 2998 > 100 µM | SK-OV-3 > 100 µM | HCT-116 > 100 µM | SF-295 91.8 µM | A498 > 100 µM | K562 43.6 µM | SK-MEL-2 > 100 µM | SW-620 > 100 µM | HOP-62 > 100 µM | PC-3 > 100 µM | KM12 > 100 µM | UACC-62 > 100 µM | NCI-H460 > 100 µM | SK-MEL-5 > 100 µM | UO-31 > 100 µM | CAKI-1 > 100 µM | RXF 393 67.3 µM
active: HL-60 0.253 µM

CC[C@@]1(O)C[C@H](OC2CC(N(C)C)C(OC3CC(O)C(OC4CCC(=O)C(C)O4)C(C)O3)C(C)O2)c2c(cc3c(c2O)C(=O)c2c(O)ccc(O)c2C3=O)[C@H]1C(=O)OC (some centres not stated)
active: UACC-257 0.0153 µM | OVCAR-3 < 0.01 µM | COLO 205 < 0.0001 µM | SNB-75 0.0181 µM | SR < 0.01 µM | SNB-19 < 0.0001 µM | M14 < 0.01 µM | MCF7 < 0.0001 µM | IGROV-1 < 0.0001 µM | U-251 < 0.01 µM | A498 < 0.01 µM | SK-MEL-2 < 0.01 µM | CCRF-CEM < 0.0001 µM | HOP-92 < 0.01 µM | UACC-62 < 0.01 µM | HL-60 < 0.0001 µM | OVCAR-5 0.01 µM
